Experimental data from ChEMBL document CHEMBL1149084, “Synthesis and evaluation of 2-pyridyl pyrimidines with in vitro antiplasmodial and antileishmanial activity” (Bioorg Med Chem Lett, 2009).

How the values were obtained:
Plasmodium falciparum [1] = test: Antiplasmodial activity against chloroquine-resistant Plasmodium falciparum K1; format: functional, organism-based
L6 = test: Cytotoxicity against rat L6 cells; format: ADME, cell-based
Leishmania donovani = test: Antileishmanial activity against Leishmania donovani; format: functional, organism-based
Plasmodium falciparum [2] = test: Antimalarial activity against chloroquine-resistant Plasmodium falciparum Dd2 after 24 hrs by [3H]hypoxanthine uptake; format: functional, organism-based
[3] = Inhibition of GST-tagged Plasmodium falciparum MetAP 1B by […]
[4] = Selectivity ratio of IC50 for rat L6 cells to IC50 for Leishmania donovani

Structure (SMILES) | IC50 (Plasmodium falciparum [1]) [µM] | IC50 (L6) [µM] | IC50 (Leishmania donovani) [µM] | IC50 (Plasmodium falciparum [2]) [µM] | IC50 [3] [µM] | selectivity ratio [4]
Cc1nc(-c2ccccn2)nc(N2CCCC2c2ccccc2)c1Cl (stereo unspecified) | 4.1 | 76.5 | 0.7 | – | – | –
Cc1nc(-c2ccccn2)nc(NCc2ccccc2)c1Cl | 3.2 | 70.1 | 0.47 | – | – | –
Cc1nc(-c2ccccn2)nc(N2CCC(Cc3ccccc3)C2)c1Cl (stereo unspecified) | 3.1 | 88 | 0.38 | – | – | –
Cc1nc(-c2ccccn2)nc(N2CCC(c3ccccc3)C2)c1Cl (stereo unspecified) | 4.7 | 133 | 0.39 | – | – | –
Cc1nc(-c2ccccn2)nc(NCc2ccc(S(C)(=O)=O)cc2)c1Cl | 10.1 | 93.6 | 10.7 | – | – | –
Cc1nc(-c2ccccn2)nc(NCC2CCOC2)c1Cl (stereo unspecified) | 15.3 | 125 | 10.5 | – | – | –
Cc1nc(-c2ccccn2)nc(NCCNc2cc(C(F)(F)F)ccn2)c1Cl | 2.74 | 5.2 | 0.28 | – | – | –
Cc1nc(-c2ccccn2)nc(NCCc2ccccc2)c1Cl | 9.8 | 25.5 | 0.5 | 3.1 | 0.11 | –
Cc1nc(-c2ccccn2)nc(NCCCc2ccccc2)c1Cl | 1.9 | 73.5 | 0.48 | – | – | –
Cc1nc(-c2ccccn2)nc(NCCc2cccc(Cl)c2)c1Cl | 2.5 | 32.6 | 0.44 | – | – | –
C[C@@H]1CC[C@H]2[C@@H](C)C(=O)O[C@@H]3O[C@@]4(C)CC[C@@H]1[C@]32OO4 [ARTEMISININ] | 0.005 | > 170 | – | – | – | –
CCN(CC)CCCC(C)Nc1ccnc2cc(Cl)ccc12 (stereo unspecified) [CHLOROQUINE] | – | 70.1 | – | – | – | –
Cc1nc(-c2ccccn2)nc(N2CCN(S(=O)(=O)c3ccccc3)CC2)c1Cl | 11.6 | 210 | 54.4 | – | – | –
Cc1nc(-c2ccccn2)nc(NCCC2CCCCC2)c1Cl | 2.3 | 49.5 | 0.26 | – | – | –
Cc1nc(-c2ccccn2)nc(N2CCN(CCO)CC2)c1Cl | 7.5 | 270 | 156 | – | – | –
Cc1nc(-c2ccccn2)nc(NCCc2ccc(S(C)(=O)=O)cc2)c1Cl | 8.2 | 104 | 7.4 | – | – | –

Structure (SMILES) | IC50 (Plasmodium falciparum [1]) [µM] | IC50 (L6) [µM] | IC50 (Leishmania donovani) [µM] | IC50 (Plasmodium falciparum [2]) [µM] | IC50 [3] [µM] | selectivity ratio [4]
Cc1nc(-c2ccccn2)nc(N(C)C)c1Cl | 15.1 | 115 | 1.1 | – | – | > 10
Cc1nc(-c2ccccn2)nc(NCCc2ccncc2)c1Cl | 9.5 | 110 | 14.1 | – | – | –
Cc1nc(-c2ccccn2)nc(NC2Cc3ccccc3C2)c1Cl | 3.7 | 33.2 | 0.42 | – | – | –
FC(F)(F)c1cc(NCCc2ccccc2)nc(-c2ccccn2)n1 | 8.2 | 74.2 | 2 | – | – | –
Cc1nc(-c2ccccn2)nc(N)c1Cl | 20.8 | 85.3 | 3.3 | – | – | > 10
Cc1nc(-c2ccccn2)nc(N2CCCC2Cc2ccccc2)c1Cl (stereo unspecified) | 4.3 | 92.3 | 0.63 | – | – | –
Cc1cc(NCCc2ccccc2)nc(-c2ccccn2)n1 | 3.7 | 18.3 | 3 | – | – | –
Cc1nc(-c2ccccn2)nc(N2CCC(c3ccccc3)CC2)c1Cl | 8.9 | 183 | 1.1 | – | – | –
COc1ccc(CCNc2nc(-c3ccccn3)nc(C)c2Cl)cc1 | 2.5 | 8.7 | 0.43 | – | – | –
Cc1nc(-c2ccccn2)nc(NCCc2ccccc2Cl)c1Cl | 6.3 | 91.6 | 1.2 | – | – | –
Cc1nc(-c2ccccn2)nc(NCCS(=O)(=O)c2ccccc2)c1Cl | 10.4 | 72.8 | 11.4 | – | – | –
Cc1nc(-c2ccccn2)nc(NCCc2ccc(Cl)cc2)c1Cl | 2 | 40.4 | 0.45 | – | – | –
CCCCCCCCCCCCCCCCOP(=O)([O-])OCC[N+](C)(C)C [MILTEFOSINE] | – | – | 0.7 | – | – | –
Cc1nc(-c2ccccn2)nc(N(C)CCc2ccccc2)c1Cl | 3.5 | 62.5 | 0.32 | – | – | –
CCN(CC)c1nc(-c2ccccn2)nc(C)c1Cl | 9 | 148 | 1.22 | – | – | > 10
Cc1nc(-c2ccccn2)nc(NCC2CCCCC2)c1Cl | 2.4 | 42.4 | 0.31 | – | – | –
